Measurements published in the supplement of paper PMC10307832.

How the values were obtained:
Assay in all cases: relative viability (nuclei count vs DMSO), 5 days (fraction); higher = more cells survive
NCI-H520 = tested on: NCI-H520
How it was run: (§1)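 Medians of duplicate plates are given as relative viability. That measure is the nuclei count in treated wells divided by the count in vehicle wells. Counts were taken on 4× images of lung cancer cell lines in 1536-well plates, 5 days after pin-tool dosing the day after seeding with one drug alone or a fixed anchor-drug dose plus five library-drug doses (not always all listed) in √10 steps.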

NCI-H2170 = tested on: NCI-H2170
How it was run: as §1

HOP-62 = tested on: HOP-62
How it was run: as §1

NCI-H1793 = tested on: NCI-H1793
How it was run: as §1

NCI-H23 = tested on: NCI-H23
How it was run: as §1

SW 1573 = tested on: SW 1573
How it was run: as §1

PC-14 = tested on: PC-14
How it was run: as §1

NCI-H2023 = tested on: NCI-H2023
How it was run: as §1

LOU-NH91 = tested on: LOU-NH91
How it was run: as §1

NCI-H2405 = tested on: NCI-H2405
How it was run: as §1

EPLC-272H = tested on: EPLC-272H
How it was run: as §1

NCI-H2009 = tested on: NCI-H2009
How it was run: as §1

HCC-44 = tested on: HCC-44
How it was run: as §1

NCI-H441 = tested on: NCI-H441
How it was run: as §1

NCI-H460 = tested on: NCI-H460
How it was run: as §1

NCI-H727 = tested on: NCI-H727
How it was run: as §1

ChaGo-K-1 = tested on: ChaGo-K-1
How it was run: as §1

NCI-H650 = tested on: NCI-H650
How it was run: as §1

NCI-H647 = tested on: NCI-H647
How it was run: as §1

LCLC-103H = tested on: LCLC-103H
How it was run: as §1

NCI-H1437 = tested on: NCI-H1437
How it was run: as §1

NCI-H2126 = tested on: NCI-H2126
How it was run: as §1

EMC-BAC-2 = tested on: EMC-BAC-2
How it was run: as §1

NCI-H2347 = tested on: NCI-H2347
How it was run: as §1

SW 900 = tested on: SW 900
How it was run: as §1

CCCCCCCCCCCC1=C(O)C(=O)C=C(O)C1=O [Embelin] + O=C(c1cc(Cc2n[nH]c(=O)c3ccccc23)ccc1F)N1CCN(C(=O)C2CC2)CC1 [Olaparib] (partner 8 µM)
relative viability (NCI-H520; first compound 0.08 µM): 0.39
relative viability (NCI-H520; first compound 0.8 µM): 0.327
relative viability (NCI-H520; first compound 2.53 µM): 0.342
relative viability (NCI-H520; first compound 8 µM): 0.352
relative viability (NCI-H2170; first compound 0.08 µM): 0.569
relative viability (NCI-H2170; first compound 0.8 µM): 0.554
relative viability (NCI-H2170; first compound 2.53 µM): 0.586
relative viability (NCI-H2170; first compound 8 µM): 0.592
relative viability (HOP-62; first compound 0.08 µM): 0.29
relative viability (HOP-62; first compound 0.8 µM): 0.253
relative viability (HOP-62; first compound 2.53 µM): 0.354
relative viability (HOP-62; first compound 8 µM): 0.451
relative viability (NCI-H1793; first compound 0.08 µM): 0.993
relative viability (NCI-H1793; first compound 0.8 µM): 1.03
relative viability (NCI-H1793; first compound 2.53 µM): 1.12
relative viability (NCI-H1793; first compound 8 µM): 1.05
relative viability (NCI-H23; first compound 0.08 µM): 0.298
relative viability (NCI-H23; first compound 0.8 µM): 0.257
relative viability (NCI-H23; first compound 2.53 µM): 0.344
relative viability (NCI-H23; first compound 8 µM): 0.274
relative viability (SW 1573; first compound 0.08 µM): 0.545
relative viability (SW 1573; first compound 0.8 µM): 0.561
relative viability (SW 1573; first compound 2.53 µM): 0.443
relative viability (SW 1573; first compound 8 µM): 0.47
relative viability (PC-14; first compound 0.08 µM): 0.279
relative viability (PC-14; first compound 0.8 µM): 0.264
relative viability (PC-14; first compound 2.53 µM): 0.303
relative viability (PC-14; first compound 8 µM): 0.26
relative viability (NCI-H2023; first compound 0.08 µM): 0.432
relative viability (NCI-H2023; first compound 0.8 µM): 0.455
relative viability (NCI-H2023; first compound 2.53 µM): 0.509
relative viability (NCI-H2023; first compound 8 µM): 0.229
relative viability (LOU-NH91; first compound 0.08 µM): 0.931
relative viability (LOU-NH91; first compound 0.8 µM): 1.01
relative viability (LOU-NH91; first compound 2.53 µM): 0.988
relative viability (LOU-NH91; first compound 8 µM): 0.924
relative viability (NCI-H2405; first compound 0.08 µM): 0.872
relative viability (NCI-H2405; first compound 0.8 µM): 0.842
relative viability (NCI-H2405; first compound 2.53 µM): 0.909
relative viability (NCI-H2405; first compound 8 µM): 0.863
relative viability (EPLC-272H; first compound 0.08 µM): 0.845
relative viability (EPLC-272H; first compound 0.8 µM): 0.924
relative viability (EPLC-272H; first compound 2.53 µM): 0.752
relative viability (EPLC-272H; first compound 8 µM): 1.14
relative viability (NCI-H2009; first compound 0.08 µM): 0.693
relative viability (NCI-H2009; first compound 0.8 µM): 0.821
relative viability (NCI-H2009; first compound 2.53 µM): 0.71
relative viability (NCI-H2009; first compound 8 µM): 0.696
relative viability (HCC-44; first compound 0.08 µM): 0.989
relative viability (HCC-44; first compound 0.8 µM): 0.959
relative viability (HCC-44; first compound 2.53 µM): 1.01
relative viability (HCC-44; first compound 8 µM): 1
relative viability (NCI-H441; first compound 0.08 µM): 0.624
relative viability (NCI-H441; first compound 0.8 µM): 0.627
relative viability (NCI-H441; first compound 2.53 µM): 0.521
relative viability (NCI-H441; first compound 8 µM): 0.618
relative viability (NCI-H460; first compound 0.08 µM): 0.45
relative viability (NCI-H460; first compound 0.8 µM): 0.431
relative viability (NCI-H460; first compound 2.53 µM): 0.421
relative viability (NCI-H460; first compound 8 µM): 0.468
relative viability (NCI-H727; first compound 0.08 µM): 0.757
relative viability (NCI-H727; first compound 0.8 µM): 0.621
relative viability (NCI-H727; first compound 2.53 µM): 0.777
relative viability (NCI-H727; first compound 8 µM): 0.633
relative viability (ChaGo-K-1; first compound 0.08 µM): 0.464
relative viability (ChaGo-K-1; first compound 0.8 µM): 0.319
relative viability (ChaGo-K-1; first compound 2.53 µM): 0.441
relative viability (ChaGo-K-1; first compound 8 µM): 0.45
relative viability (NCI-H650; first compound 0.08 µM): 0.385
relative viability (NCI-H650; first compound 0.8 µM): 0.407
relative viability (NCI-H650; first compound 2.53 µM): 0.371
relative viability (NCI-H650; first compound 8 µM): 0.381
relative viability (NCI-H647; first compound 0.08 µM): 0.575
relative viability (NCI-H647; first compound 0.8 µM): 0.67
relative viability (NCI-H647; first compound 2.53 µM): 0.705
relative viability (NCI-H647; first compound 8 µM): 0.678
relative viability (LCLC-103H; first compound 0.08 µM): 0.762
relative viability (LCLC-103H; first compound 0.8 µM): 0.796
relative viability (LCLC-103H; first compound 2.53 µM): 0.802
relative viability (LCLC-103H; first compound 8 µM): 0.764
relative viability (NCI-H1437; first compound 0.08 µM): 0.611
relative viability (NCI-H1437; first compound 0.8 µM): 0.685
relative viability (NCI-H1437; first compound 2.53 µM): 0.639
relative viability (NCI-H1437; first compound 8 µM): 0.495
relative viability (NCI-H2126; first compound 0.08 µM): 0.901
relative viability (NCI-H2126; first compound 0.8 µM): 0.954
relative viability (NCI-H2126; first compound 2.53 µM): 0.936
relative viability (NCI-H2126; first compound 8 µM): 0.892
relative viability (EMC-BAC-2; first compound 0.08 µM): 0.48
relative viability (EMC-BAC-2; first compound 0.8 µM): 0.378
relative viability (EMC-BAC-2; first compound 2.53 µM): 0.453
relative viability (EMC-BAC-2; first compound 8 µM): 0.492
relative viability (NCI-H2347; first compound 0.08 µM): 0.596
relative viability (NCI-H2347; first compound 0.8 µM): 0.641
relative viability (NCI-H2347; first compound 2.53 µM): 0.521
relative viability (NCI-H2347; first compound 8 µM): 0.68
relative viability (SW 900; first compound 0.08 µM): 1
relative viability (SW 900; first compound 0.8 µM): 0.771
relative viability (SW 900; first compound 2.53 µM): 1.15
relative viability (SW 900; first compound 8 µM): 0.918
